# Assay results from patent US11441142B2, “FLS variant having increased activity” (KONKUK UNIVERSITY INDUSTRIAL COOPERATION CORPORATION, priority 2017, dated 2022).
# Positions count from the first letter of the chain named.
# How the values were obtained:
# Type in all cases: biochemical
# [1] = molecular target: T1, Pseudomonas fluorescens FLS (formolase) variant FLS:L482R, SEQ ID NO: 11 (Pseudomonas fluorescens, UniProt Q9F4L3, A28I/A394G/A480W/G419N/L482R/L90T/R188H/W89R); test: kinetic parameters of FLS:L482R; settings: substrate acetaldehyde
# T1 sequence (Q9F4L3 1-563 A28I/A394G/A480W/G419N/L482R/L90T/R188H/W89R): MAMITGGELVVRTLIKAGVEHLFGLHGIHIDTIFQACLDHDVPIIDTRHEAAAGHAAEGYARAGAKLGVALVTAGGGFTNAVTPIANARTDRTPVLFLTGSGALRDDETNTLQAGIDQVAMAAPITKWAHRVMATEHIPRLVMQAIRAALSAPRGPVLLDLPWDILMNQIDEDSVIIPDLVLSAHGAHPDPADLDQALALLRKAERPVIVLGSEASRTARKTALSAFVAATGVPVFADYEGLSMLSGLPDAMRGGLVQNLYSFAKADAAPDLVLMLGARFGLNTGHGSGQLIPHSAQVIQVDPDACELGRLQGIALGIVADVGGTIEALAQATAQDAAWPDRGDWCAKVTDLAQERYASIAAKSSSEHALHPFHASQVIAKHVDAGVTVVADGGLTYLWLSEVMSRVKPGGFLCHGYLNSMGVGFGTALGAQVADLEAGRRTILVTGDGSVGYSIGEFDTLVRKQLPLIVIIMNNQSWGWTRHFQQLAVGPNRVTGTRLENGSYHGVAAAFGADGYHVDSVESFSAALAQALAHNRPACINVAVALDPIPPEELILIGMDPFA
# Protocol: (§1) The kinetic parameters of EtDH and EtDH:D46G were identified by reacting the EtDH and EtDH:D46G with a reaction mixture containing 100 mM glycine-NaOH buffer solution (pH 9.5), 5 mM Mg^2+, 3 mM NAD^+/NADP^+ and 0.5 to 100 mM ethanol at room temperature. The kinetic parameters of FLS and variants thereof were identified by reacting FLS and variants thereof with a reaction mixture containing 100 mM phosphate buffer solution (pH 8.0), 1 mM Mg^+, 0.1 mM TPP and 0.5 to 20 mM acetaldehyde at room temperature. The kinetic parameters of BDH and BDH:S199A were identified by reacting BDH and BDH:S199A with a reaction mixture containing 50 mM Tris-HCl buffer solution (pH 7.5), 0.2 mM NADPH, 1 mM DTT; 0.5 to 100 mM acetoin or 0.5 to 10 mM butanone at room temperature. The Km and kcat values were identified using nonlinear regression fitting of the Michaelis-Menten equation and the fitting were repeated three times.
# (§2) In order to compare the catalytic efficiencies via measurement of kinetic parameters of cascade enzymes and variants thereof in accordance with the present disclosure, the following experiment was performed. Specifically, the kinetic parameters of EtDH and EtDH:D46G were identified by reacting EtDH and EtDH:D46G with a reaction mixture containing 100 mM glycine-NaOH buffer solution (pH 9.5), 5 mM Mg^2+, 3 mM NAD^+/NADP^+ and 0.5 to 100 mM ethanol at room temperature. […]
# [2] = molecular target: T2, Pseudomonas fluorescens FLS (formolase) variant FLS:L482S, SEQ ID NO: 10 (Pseudomonas fluorescens, UniProt Q9F4L3, A28I/A394G/A480W/G419N/L482S/L90T/R188H/W89R); test: kinetic parameters of FLS:L482S; settings: substrate acetaldehyde
# T2 sequence (Q9F4L3 1-563 A28I/A394G/A480W/G419N/L482S/L90T/R188H/W89R): T1 sequence (Q9F4L3 1-563 A28I/A394G/A480W/G419N/L482R/L90T/R188H/W89R) with R482S
# Protocol: as §1, §2
# [3] = molecular target: T3, Pseudomonas fluorescens FLS (formolase), wild type, SEQ ID NO: 8 (Pseudomonas fluorescens, UniProt Q9F4L3, A28I/A394G/A480W/G419N/L90T/R188H/W89R); test: kinetic parameters of FLS; settings: substrate acetaldehyde, coenzyme TPP (0.1 mM), pH 8.0, room temperature
# T3 sequence (Q9F4L3 1-563 A28I/A394G/A480W/G419N/L90T/R188H/W89R): T1 sequence (Q9F4L3 1-563 A28I/A394G/A480W/G419N/L482R/L90T/R188H/W89R) with R482L
# Protocol: as §1, §2
# [4] = system: Pseudomonas fluorescens FLS (formolase) variant FLS:L482E, SEQ ID NO: 12; test: kinetic parameters of FLS:L482E; settings: substrate acetaldehyde, coenzyme TPP
# Protocol: as §1, §2
# [5] = molecular target: T4, Pseudomonas fluorescens FLS (formolase) variant FLS:L482E, SEQ ID NO: 12 (Pseudomonas fluorescens, UniProt Q9F4L3, A28I/A394G/A480W/G419N/L482E/L90T/R188H/W89R); test: kinetic parameters of FLS:L482E; settings: substrate acetaldehyde, coenzyme TPP (0.1 mM), pH 8.0, room temperature
# T4 sequence (Q9F4L3 1-563 A28I/A394G/A480W/G419N/L482E/L90T/R188H/W89R): T1 sequence (Q9F4L3 1-563 A28I/A394G/A480W/G419N/L482R/L90T/R188H/W89R) with R482E
# Protocol: as §1, §2
# [6] = coenzyme TPP (0.1 mM), pH 8.0, room temperature
compound,measurement,setting,value
CC=O [Acetaldehyde],increase of catalyst efficiency (kcat/Km) compared to wild-type FLS,[1]; coenzyme TPP,37.84%
same,kcat/Km,[1]; [6],10.6 M⁻¹ s⁻¹
same,increase of catalyst efficiency (kcat/Km) compared to wild-type FLS,[2]; coenzyme TPP,72.95%
same,kcat/Km,[2]; [6],13.3 M⁻¹ s⁻¹
same,kcat/Km,[3],7.69 M⁻¹ s⁻¹
same,increase of catalyst efficiency (kcat/Km) compared to wild-type FLS,[4],25.62%
same,kcat/Km,[5],9.66 M⁻¹ s⁻¹
